Laboratory results taken from US11667602B2, “Compounds and their use” (AstraZeneca AB, priority 2020, dated 2023).
pEC50: −log10 of the molar value. In brackets after ≈: the same amount, converted by molar mass.

What was measured:
[1] = Rat Hepatocyte Stability (Test E); format: in vitro ADME; settings: geometric mean if run multiple times; for hepatocyte CLint: rat, hepatocytes
How it was run: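 Intrinsic clearance in rat hepatocytes, expressed as μl/min/10^6 cells, following the literature integrated DMPK panel method. Repeat determinations combined as geometric mean.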

[2] = Human Plasma Protein Binding (Test B); format: in vitro ADME; settings: fraction unbound (fu)
How it was run: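 Values given as % free (fu) in human plasma, using the method of Wernevik et al. (2020). For compounds tested more than once, the arithmetic mean is given.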

[3] = Human Hepatocyte Stability (Test D); format: in vitro ADME; settings: geometric mean if run multiple times; for hepatocyte CLint at 1 µM: human, cryopreserved pooled human hepatocytes (LiverPool 10-Donor)
How it was run: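 Intrinsic clearance (μL/min/10^6 cells), derived as kV/N from the log-linear loss of parent compound. Compound incubated at 37 °C with cryopreserved pooled human hepatocytes, 0.25×10^6 cells in 0.25 mL L-15; dosing solution 100 μM in acetonitrile. Singlicate incubations, cassette LC-MS; repeats reported as geometric mean.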

human RXFP1 = target: T1, human RXFP1 (Homo sapiens, UniProt Q9HBX9); assay: RXFP1 Hu cAMP (Test A); format: cell-based; set-up: expressed in transfected cells; host or cells: Jump-In T-REx CHO-K1 cells (ThermoFisher), induced with 10 ng/ml doxycycline for 24 h; settings: RXFP1 Hu cAMP; for pEC50: read-out: Test A EC50
T1 sequence (Q9HBX9 1-757): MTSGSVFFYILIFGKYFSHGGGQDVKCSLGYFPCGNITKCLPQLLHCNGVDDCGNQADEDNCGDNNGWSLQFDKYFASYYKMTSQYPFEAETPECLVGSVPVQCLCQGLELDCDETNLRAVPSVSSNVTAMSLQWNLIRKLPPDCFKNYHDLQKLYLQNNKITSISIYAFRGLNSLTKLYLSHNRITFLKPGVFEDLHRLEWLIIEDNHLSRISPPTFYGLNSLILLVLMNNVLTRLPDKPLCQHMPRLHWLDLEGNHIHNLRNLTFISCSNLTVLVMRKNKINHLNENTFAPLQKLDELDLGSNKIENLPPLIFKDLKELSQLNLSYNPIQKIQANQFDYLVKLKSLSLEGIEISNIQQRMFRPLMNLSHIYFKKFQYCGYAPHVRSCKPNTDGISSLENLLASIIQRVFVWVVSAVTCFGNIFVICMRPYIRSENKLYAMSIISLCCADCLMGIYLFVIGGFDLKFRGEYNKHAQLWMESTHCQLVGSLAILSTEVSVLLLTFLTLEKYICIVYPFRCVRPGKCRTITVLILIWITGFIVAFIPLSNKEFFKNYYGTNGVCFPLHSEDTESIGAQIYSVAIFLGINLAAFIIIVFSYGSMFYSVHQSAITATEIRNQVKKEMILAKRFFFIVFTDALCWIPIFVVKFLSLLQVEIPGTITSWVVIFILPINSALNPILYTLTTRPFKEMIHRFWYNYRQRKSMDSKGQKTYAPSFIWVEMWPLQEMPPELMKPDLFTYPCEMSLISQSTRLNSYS
How it was run: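 Read-out is HTRF signal, inversely proportional to cAMP, converted to cAMP amount by standard curve. Stimulation occurred in inducible CHO-K1 cells expressing the human receptor with phosphodiesterases blocked by 0.5 mM IBMX.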

[4] = Human Liver Microsomal Stability (Test C); format: in vitro ADME; settings: for microsomal CLint: human, liver microsomes
How it was run: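 CLint (μl/min/mg protein) derived from compound depletion in human liver microsomes following a published standardized early-DMPK protocol; replicate determinations given as arithmetic mean.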

Solubility (Test F) = format: physicochemical; settings: arithmetic mean if run multiple times
Experimental: The assay was conducted according to the Solubility Assay described in pages 164-167 of Wernevik, J. et al., “A Fully Integrated Assay Panel for Early Drug Metabolism and Pharmacokinetics Profiling”, Assay and Drug Development Technologies, 2020, 18(4), 157-179. Data are reported in Table 36 as solubility ([…]. Where the assay was run multiple times for the same compound, the arithmetic mean is reported.

hepatocyte CLint [1]	Test B Human Plasma Protein Binding (% free) [2]	hepatocyte CLint at 1 µM [3]	Test A Sinf (human RXFP1)	pEC50 (human RXFP1)	microsomal CLint [4]	solubility (Solubility (Test F))	SMILES	Test E Rat Hepatocyte Stability Clint ([1]; rat hepatocytes)	Test D Human Hepatocyte Stability Clint ([3]; human hepatocytes)	Test C Human Liver Microsomal Stability Clint ([4]; human liver microsomes)
78 µL/min/1e6 cells	1.5 % free	18 µL/min/1e6 cells	112%	7.96	56 µL/min/mg	> 1000 µM	COC[C@]1(C(=O)O)CC[C@@H](Oc2cc(C(=O)N[C@@H]3[C@H]4CC[C@H](C4)[C@@H]3C(=O)Nc3cccc(S(=O)(=O)C(F)(F)F)c3)c(OC)cc2F)CC1 [Example 482]			
59 µL/min/1e6 cells	4.8 % free	8.2 µL/min/1e6 cells	96%	6.13	24 µL/min/mg	980 µM (≈ 534 µg/mL)	COc1cc(F)c(O[C@H]2CC[C@@](C)(C(=O)O)CC2)cc1C(=O)N[C@@H]1[C@H]2CC[C@H](C2)[C@@H]1C(=O)N[C@H](C)C1(C)CC1 (racemic) [Example 39]			
22 µL/min/1e6 cells	13 % free	4.9 µL/min/1e6 cells	133%	7.26	8.7 µL/min/mg	810 µM (≈ 436 µg/mL)	COc1cc(C#N)c(O[C@H]2CC[C@@](C)(C(=O)O)CC2)cc1C(=O)N[C@@H]1[C@H]2CC[C@H](C2)[C@@H]1C(=O)NCC1(C)CC1 [Example 98]			
16 µL/min/1e6 cells	5 % free	16 µL/min/1e6 cells	91%	6.19	47 µL/min/mg	21 µM (≈ 13.9 µg/mL)	COc1cc(F)c(O[C@H]2CC[C@@](C)(C(=O)O)CC2)cc1C(=O)N[C@@H]1[C@H](O)CC[C@@H]1C(=O)Nc1cccc(S(=O)(=O)C(F)(F)F)c1 (racemic) [Example 396, (1R,4s)-4-(2-Fluoro-5-(((1SR,2RS,5SR)-2-hydroxy-5-((3-((trifluoromethyl)sulfonyl)phenyl)carbamoyl)cyclopentyl)carbamoyl)-4-methoxyphenoxy)-1-methylcyclohexane-1-carboxylic acid]			
17 µL/min/1e6 cells	<0.32 % free	22 µL/min/1e6 cells	98%	6.66	15 µL/min/mg	640 µM (≈ 416 µg/mL)	COc1cc(F)c(-c2ccc(C(=O)O)cc2)cc1C(=O)N[C@H]1[C@@H](C(=O)Nc2ccc(F)c(S(=O)(=O)C(F)(F)F)c2)[C@@H]2C=C[C@H]1C2 (racemic) [Example 296, rac-2′-Fluoro-5′-(((1R,2R,3S,4S)-3-((4-fluoro-3-((trifluoromethyl)sulfonyl)phenyl)carbamoyl)bicyclo[2.2.1]hept-5-en-2-yl)carbamoyl)-4′-methoxy-[1,1′-biphenyl]-4-carboxylic acid]			
7.9 µL/min/1e6 cells	12 % free	3.3 µL/min/1e6 cells	113%	7.59	16 µL/min/mg	1000 µM (≈ 594 µg/mL)	COc1cc(C#N)c(O[C@H]2CC[C@@](C)(C(=O)O)CC2)cc1C(=O)N[C@@H]1[C@H]2CC[C@H](C2)[C@@H]1C(=O)NCC(C)(C)C(F)(F)F [Example 624]			
> 300 µL/min/1e6 cells	0.82 % free	97 µL/min/1e6 cells	115%	6.27	70 µL/min/mg	220 µM (≈ 145 µg/mL)	COc1cc(F)c(OCCCCCCC(=O)O)cc1C(=O)N[C@@H]1[C@H]2CC[C@H](C2)[C@@H]1C(=O)Nc1cccc(S(=O)(=O)C(F)(F)F)c1 [Example 436]			
32 µL/min/1e6 cells	1 % free	13 µL/min/1e6 cells	106%	7.80	42 µL/min/mg	> 800 µM	COc1cc(F)c(O[C@H]2CC[C@@H](C(=O)O)CC2)cc1C(=O)N[C@@H]1[C@H]2CC[C@H](C2)[C@@H]1C(=O)Nc1ccc(F)c(C(F)(F)F)c1 [Example 179, (1S,4s)-4-(2-Fluoro-5-(((1S,2R,3S,4R)-3-((4-fluoro-3-(trifluoromethyl)phenyl)carbamoyl)bicyclo[2.2.1]heptan-2-yl)carbamoyl)-4-methoxyphenoxy)cyclohexane-1-carboxylic acid]			
17 µL/min/1e6 cells	1.8 % free	2.1 µL/min/1e6 cells	108%	7.62	7.9 µL/min/mg	710 µM (≈ 400 µg/mL)	COc1cc(Cl)c(O[C@H]2CC[C@@](C)(C(=O)O)CC2)cc1C(=O)N[C@@H]1[C@H]2CC[C@H](C2)[C@@H]1C(=O)NC12CC(F)(C1)C2 [Example 411]			

More lines, now with the values behind:

SMILES	hepatocyte CLint [1]	Test B Human Plasma Protein Binding (% free) [2]	hepatocyte CLint at 1 µM [3]	Test A Sinf (human RXFP1)	pEC50 (human RXFP1)	microsomal CLint [4]	solubility (Solubility (Test F))	Test E Rat Hepatocyte Stability Clint ([1]; rat hepatocytes)	Test D Human Hepatocyte Stability Clint ([3]; human hepatocytes)	Test C Human Liver Microsomal Stability Clint ([4]; human liver microsomes)
COc1cc(F)c(-c2ccn(CCC(=O)O)c(=O)c2)cc1C(=O)N[C@@H]1[C@H]2CC[C@H](C2)[C@@H]1C(=O)Nc1cccc(S(=O)(=O)C(F)(F)F)c1 [Example 249]	15 µL/min/1e6 cells	3.4 % free	11 µL/min/1e6 cells	113%	6.49	43 µL/min/mg	190 µM (≈ 129 µg/mL)			
COc1cc(F)c(O[C@H]2CC[C@@](C)(C(=O)O)CC2)cc1C(=O)N[C@@H]1[C@H]2CC[C@H](C2)[C@@H]1C(=O)NCC1(C)CCCCC1 [Example 44]	35 µL/min/1e6 cells	2.1 % free	17 µL/min/1e6 cells	107%	7.80	110 µL/min/mg	300 µM (≈ 172 µg/mL)			
COc1cc(F)c(O[C@H]2CC[C@@](C)(C(=O)O)CC2)cc1C(=O)N[C@@H]1COC[C@@H]1C(=O)Nc1cccc(S(=O)(=O)C(F)(F)F)c1 (relative stereo) [Example 561, (1R,4s)-4-(2-Fluoro-4-methoxy-5-(((3S*,4R*)-4-((3-((trifluoromethyl)sulfonyl)phenyl)carbamoyl)tetrahydrofuran-3-yl)carbamoyl)phenoxy)-1-methylcyclohexane-1-carboxylic acid]		3.7 % free		104%	6.89		930 µM (≈ 601 µg/mL)	55 μL/min/10^6 cells	6.3 μL/min/10^6 cells	17 µL/min/mg
CCC(C)(C)CNC(=O)[C@H]1CCC[C@H]1NC(=O)c1cc(O[C@H]2CC[C@@](C)(C(=O)O)CC2)c(F)cc1OC [Example 58, (1S,4s)-4-(5-(((1R,2S)-2-((2,2-Dimethylbutyl)carbamoyl)cyclopentyl)carbamoyl)-2-fluoro-4-methoxyphenoxy)-1-methylcyclohexane-1-carboxylic acid]	19 µL/min/1e6 cells	7 % free	1.9 µL/min/1e6 cells	99%	6.59	6.5 µL/min/mg	> 1000 µM			
COc1cc(F)c(O[C@H]2CC[C@@H](C(=O)O)CC2)cc1C(=O)N[C@H]1[C@@H](C(=O)Nc2ccc(F)c(C(F)(F)F)c2)[C@@H]2C=C[C@H]1C2 (single isomer, unassigned) [Example 498]	17 µL/min/1e6 cells	0.86 % free	7.7 µL/min/1e6 cells	113%	< 7.52	23 µL/min/mg	> 980 µM			
COc1cc(F)c(-c2ccc(CC(=O)O)cc2)cc1C(=O)N[C@@H]1CCC[C@@H]1C(=O)Nc1cccc(S(=O)(=O)C(F)(F)F)c1 [Example 320]	9.6 µL/min/1e6 cells	0.67 % free	11 µL/min/1e6 cells	119%	6.34	14 µL/min/mg	> 1000 µM			
